Our source for the solubility and Buprenorphine detected values is US20070231269A1, “Analgesics” (IONIX PHARMACEUTICALS LIMITED, priority 2002, published 2007).

One may read the solubility as the concentration that dissolves in the medium under given conditions.

The data set can be described thus: Solubility of buprenorphine hydrochloride in pectin solutions (saturated solution, hplc). The settings on record: for solubility: 18 °C, thermodynamic from solid; for Buprenorphine detected: solubility, 20 mg/ml pectin, pH 3-6, 18° C., expressed as buprenorphine free base.

On to `CO[C@]12CCC3(C[C@@H]1[C@](C)(O)C(C)(C)C)[C@H]1Cc4ccc(O)c5c4[C@@]3(CCN1CC1CC1)[C@H]2O5` [Buprenorphine, 5α,7α(S)-17-(cyclopropylmethyl)-α-(1,1-dimethylethyl)-4,5-epoxy-18,19-dihydro-3-hydroxy-6-methoxy-α-methyl-6,14-ethenomorphinan-7-methanol], for which the solubility (aqueous with cosolvent or surfactant or cyclodextrin) was > 10000 µg/mL and the solubility (pH 4.5, aqueous with cosolvent or surfactant or cyclodextrin) was < 10000 µg/mL. Moreover, the Buprenorphine detected result (dextrose 0-50 mg/ml) was “not affected significantly” and the Buprenorphine detected entry (mannitol 0-50 mg/ml) is “not affected significantly”.
